We go through one compound from publication PMC4769319, “Cohesin Releases DNA through Asymmetric ATPase-Driven Ring Opening” (Molecular Cell, 2016).

The test has as its target T1, Smc1/Smc3 heterodimer with Scc1-C (cohesin) (Saccharomyces cerevisiae, UniProt P32908+P47037).
T1 construct: N-terminal tags; Sf9 insect cells; fluorescently labelled for MST; with Sister chromatid cohesion protein 1
T1 sequence (P32908 1-1225): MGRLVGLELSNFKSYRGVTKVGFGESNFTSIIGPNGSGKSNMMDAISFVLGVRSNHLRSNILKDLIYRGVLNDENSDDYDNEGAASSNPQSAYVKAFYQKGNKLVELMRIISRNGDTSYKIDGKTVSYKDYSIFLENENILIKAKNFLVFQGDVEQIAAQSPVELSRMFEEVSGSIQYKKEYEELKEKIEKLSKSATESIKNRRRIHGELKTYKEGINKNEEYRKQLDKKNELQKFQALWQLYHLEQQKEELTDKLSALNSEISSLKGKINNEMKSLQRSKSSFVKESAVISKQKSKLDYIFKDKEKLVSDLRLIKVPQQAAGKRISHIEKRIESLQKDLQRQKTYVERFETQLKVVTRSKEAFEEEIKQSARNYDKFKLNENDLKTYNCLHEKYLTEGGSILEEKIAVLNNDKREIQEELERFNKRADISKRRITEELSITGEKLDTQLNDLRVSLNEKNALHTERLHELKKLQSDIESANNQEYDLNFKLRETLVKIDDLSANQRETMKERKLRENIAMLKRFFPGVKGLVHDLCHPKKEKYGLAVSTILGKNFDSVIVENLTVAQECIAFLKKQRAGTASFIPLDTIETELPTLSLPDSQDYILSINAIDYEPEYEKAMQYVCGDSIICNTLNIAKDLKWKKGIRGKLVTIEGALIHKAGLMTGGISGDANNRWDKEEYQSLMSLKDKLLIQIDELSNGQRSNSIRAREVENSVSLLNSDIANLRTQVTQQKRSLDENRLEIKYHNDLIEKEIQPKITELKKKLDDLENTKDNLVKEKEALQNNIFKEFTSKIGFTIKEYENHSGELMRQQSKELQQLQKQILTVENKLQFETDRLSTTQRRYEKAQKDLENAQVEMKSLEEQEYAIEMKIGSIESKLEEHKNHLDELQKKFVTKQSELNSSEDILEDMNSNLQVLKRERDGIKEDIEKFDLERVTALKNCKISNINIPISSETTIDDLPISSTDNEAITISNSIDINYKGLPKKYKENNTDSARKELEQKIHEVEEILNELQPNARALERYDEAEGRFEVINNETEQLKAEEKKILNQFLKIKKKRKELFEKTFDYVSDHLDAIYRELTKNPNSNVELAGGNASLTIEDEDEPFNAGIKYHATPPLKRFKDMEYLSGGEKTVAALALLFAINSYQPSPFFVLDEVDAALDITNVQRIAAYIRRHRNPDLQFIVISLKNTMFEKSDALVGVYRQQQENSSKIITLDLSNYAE
T1 sequence (P47037 1-1230): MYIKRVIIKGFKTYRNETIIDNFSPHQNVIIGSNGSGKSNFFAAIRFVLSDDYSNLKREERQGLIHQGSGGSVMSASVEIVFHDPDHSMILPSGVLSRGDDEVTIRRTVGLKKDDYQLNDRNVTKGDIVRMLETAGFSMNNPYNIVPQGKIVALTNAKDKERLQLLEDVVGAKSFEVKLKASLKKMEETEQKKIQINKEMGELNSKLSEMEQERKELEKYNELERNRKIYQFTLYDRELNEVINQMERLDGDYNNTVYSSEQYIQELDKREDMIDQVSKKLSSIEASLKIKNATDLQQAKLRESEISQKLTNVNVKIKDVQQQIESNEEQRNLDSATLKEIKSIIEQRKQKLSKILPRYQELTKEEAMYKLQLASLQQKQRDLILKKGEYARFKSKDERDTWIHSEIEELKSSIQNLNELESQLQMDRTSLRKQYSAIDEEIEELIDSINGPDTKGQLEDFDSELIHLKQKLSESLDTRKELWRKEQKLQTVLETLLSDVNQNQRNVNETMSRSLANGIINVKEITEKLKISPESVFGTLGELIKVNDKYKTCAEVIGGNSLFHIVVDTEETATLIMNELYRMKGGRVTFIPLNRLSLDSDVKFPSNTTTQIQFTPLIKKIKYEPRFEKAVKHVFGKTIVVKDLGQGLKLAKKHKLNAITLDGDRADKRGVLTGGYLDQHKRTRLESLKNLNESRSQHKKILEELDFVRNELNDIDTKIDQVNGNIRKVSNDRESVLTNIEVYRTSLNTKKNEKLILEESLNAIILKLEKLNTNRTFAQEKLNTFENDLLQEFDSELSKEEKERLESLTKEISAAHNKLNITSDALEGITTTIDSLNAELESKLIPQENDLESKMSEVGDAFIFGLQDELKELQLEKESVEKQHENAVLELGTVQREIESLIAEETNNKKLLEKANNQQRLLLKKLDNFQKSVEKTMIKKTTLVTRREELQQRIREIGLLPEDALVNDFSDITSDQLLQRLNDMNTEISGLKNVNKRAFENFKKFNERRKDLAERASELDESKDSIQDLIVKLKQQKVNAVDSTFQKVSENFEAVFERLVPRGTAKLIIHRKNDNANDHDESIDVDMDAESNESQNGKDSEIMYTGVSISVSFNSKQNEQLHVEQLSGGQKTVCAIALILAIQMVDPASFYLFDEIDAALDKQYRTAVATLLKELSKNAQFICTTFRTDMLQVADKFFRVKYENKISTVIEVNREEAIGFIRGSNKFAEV
T1 sequence (Q12158 1-566 partner): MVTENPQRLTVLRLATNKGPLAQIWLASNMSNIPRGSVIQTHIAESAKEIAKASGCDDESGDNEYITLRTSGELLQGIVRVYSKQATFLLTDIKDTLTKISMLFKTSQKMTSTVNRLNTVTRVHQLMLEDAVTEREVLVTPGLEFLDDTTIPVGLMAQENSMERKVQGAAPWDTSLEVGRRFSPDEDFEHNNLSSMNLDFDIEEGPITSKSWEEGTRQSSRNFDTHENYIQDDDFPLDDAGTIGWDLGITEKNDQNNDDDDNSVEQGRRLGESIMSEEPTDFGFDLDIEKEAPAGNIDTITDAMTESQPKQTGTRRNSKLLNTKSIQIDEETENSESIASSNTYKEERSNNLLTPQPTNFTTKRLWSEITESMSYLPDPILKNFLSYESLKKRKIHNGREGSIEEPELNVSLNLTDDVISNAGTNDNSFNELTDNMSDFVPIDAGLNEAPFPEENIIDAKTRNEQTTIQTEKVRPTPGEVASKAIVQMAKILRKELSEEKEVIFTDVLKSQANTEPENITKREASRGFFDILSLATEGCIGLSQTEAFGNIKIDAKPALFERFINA
In words: microscale thermophoresis. In kind it is binding. To be noted: fluorescently labelled protein; Smc1 co-purified with Scc1-C, plus Smc3; read-out: affinity. An excerpt: microscale thermophoresis on Smc1/Smc3 heterodimer with Scc1-C (cohesin) | wild-type and mutant cohesin complexes appear to have similar affinities to ADP

With `Nc1ncnc2c1ncn2[C@@H]1O[C@H](COP(=O)(O)OP(=O)(O)O)[C@@H](O)[C@H]1O` [ADP], the Kd was more than 1000 µM.
